According to the NIST ThermoML archive (doi:10.1016/j.jct.2019.04.023):

What was measured:
[1] = 101 kPa, Liquid; for viscosity: Falling or rolling sphere viscometry; for mass density: Vibrating tube method
[2] = xn = mol fraction of the nth substance listed; conditions: 101 kPa, Liquid, x2 = 0; for viscosity: Falling or rolling sphere viscometry; for mass density: Vibrating tube method

CC[N+](CC)=C(N(C)C)N(C)C.O=S(=O)([N-]S(=O)(=O)C(F)(F)F)C(F)(F)F
[1]
Conditions | mass density [kg/m3] | viscosity [mPa·s]
293.15 K | 1377.86 | 81.02
298.15 K | 1373.16 | 65.01
303.15 K | 1368.51 | 52.96
308.15 K | 1363.9 | 43.84
313.15 K | 1359.32 | 36.79
318.15 K | 1354.76 | 31.25
323.15 K | 1350.21 | 26.79

CCO [ethanol]
[1]
Conditions | mass density [kg/m3] | viscosity [mPa·s]
293.15 K | 789.53 | 1.177
298.15 K | 785.25 | 1.074
303.15 K | 780.93 | 0.977
308.15 K | 776.58 | 0.888
313.15 K | 772.19 | 0.819
318.15 K | 767.75 | 0.753
323.15 K | 763.27 | 0.697

CCO [ethanol] + CC[N+](CC)=C(N(C)C)N(C)C.O=S(=O)([N-]S(=O)(=O)C(F)(F)F)C(F)(F)F
[2]
Conditions | mass density [kg/m3] | viscosity [mPa·s]
293.15 K | 789.53 | 1.177
298.15 K | 785.25 | 1.074
303.15 K | 780.93 | 0.977
308.15 K | 776.58 | 0.888
313.15 K | 772.19 | 0.819
318.15 K | 767.75 | 0.753
323.15 K | 763.27 | 0.697

CO [methanol]
[1]
Conditions | mass density [kg/m3] | viscosity [mPa·s]
293.15 K | 791.3 | 0.584
298.15 K | 786.6 | 0.552
303.15 K | 781.87 | 0.524
308.15 K | 777.12 | 0.49
313.15 K | 772.34 | 0.459
318.15 K | 767.52 | 0.439
323.15 K | 762.67 | 0.417

CO [methanol] + CC[N+](CC)=C(N(C)C)N(C)C.O=S(=O)([N-]S(=O)(=O)C(F)(F)F)C(F)(F)F
[2]
Conditions | mass density [kg/m3] | viscosity [mPa·s]
293.15 K | 791.3 | 0.584
298.15 K | 786.6 | 0.552
303.15 K | 781.87 | 0.524
308.15 K | 777.12 | 0.49
313.15 K | 772.34 | 0.459
318.15 K | 767.52 | 0.439
323.15 K | 762.67 | 0.417
